Assay results taken from US9988400B2 (Genentech, Inc., priority 2013, dated 2018).

Target: T1, HEK cells stably transfected with tetracycline inducible hNR1 and hNR2A (Homo sapiens, UniProt Q05586+Q12879)
T1 construct: expressed in transfected cells; host or cells: HEK cells, stably transfected, tetracycline/doxycycline inducible
Experiment: Assay 1: Cell-Based Assay, cytosolic calcium response to positive allosteric modulators (with 30 μM glycine and 300 nM L-glutamate, EC30)
Details: Table 3; cytosolic calcium response, with 30 μM glycine and 300 nM L-glutamate (EC30); — = no plateau was reached
Procedure, shortened: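 Cells induced 24 h with 7.5 μg mL^−1 doxycycline plus 500 μM (+)-ketamine, loaded 60 min at 37 °C with calcium dye in Mg-free HBSS (1.8 mM Ca, probenecid, 10 μM (+)-ketamine, pH 7.15). Peak RFU over 5 min after compound addition, scaled to 100 μM L-glutamate (100%) and 0 μM (0%); four-parameter Hill fit for EC50, max % if no plateau.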

T1 sequence (Q12879 23-1464, other chains not shown): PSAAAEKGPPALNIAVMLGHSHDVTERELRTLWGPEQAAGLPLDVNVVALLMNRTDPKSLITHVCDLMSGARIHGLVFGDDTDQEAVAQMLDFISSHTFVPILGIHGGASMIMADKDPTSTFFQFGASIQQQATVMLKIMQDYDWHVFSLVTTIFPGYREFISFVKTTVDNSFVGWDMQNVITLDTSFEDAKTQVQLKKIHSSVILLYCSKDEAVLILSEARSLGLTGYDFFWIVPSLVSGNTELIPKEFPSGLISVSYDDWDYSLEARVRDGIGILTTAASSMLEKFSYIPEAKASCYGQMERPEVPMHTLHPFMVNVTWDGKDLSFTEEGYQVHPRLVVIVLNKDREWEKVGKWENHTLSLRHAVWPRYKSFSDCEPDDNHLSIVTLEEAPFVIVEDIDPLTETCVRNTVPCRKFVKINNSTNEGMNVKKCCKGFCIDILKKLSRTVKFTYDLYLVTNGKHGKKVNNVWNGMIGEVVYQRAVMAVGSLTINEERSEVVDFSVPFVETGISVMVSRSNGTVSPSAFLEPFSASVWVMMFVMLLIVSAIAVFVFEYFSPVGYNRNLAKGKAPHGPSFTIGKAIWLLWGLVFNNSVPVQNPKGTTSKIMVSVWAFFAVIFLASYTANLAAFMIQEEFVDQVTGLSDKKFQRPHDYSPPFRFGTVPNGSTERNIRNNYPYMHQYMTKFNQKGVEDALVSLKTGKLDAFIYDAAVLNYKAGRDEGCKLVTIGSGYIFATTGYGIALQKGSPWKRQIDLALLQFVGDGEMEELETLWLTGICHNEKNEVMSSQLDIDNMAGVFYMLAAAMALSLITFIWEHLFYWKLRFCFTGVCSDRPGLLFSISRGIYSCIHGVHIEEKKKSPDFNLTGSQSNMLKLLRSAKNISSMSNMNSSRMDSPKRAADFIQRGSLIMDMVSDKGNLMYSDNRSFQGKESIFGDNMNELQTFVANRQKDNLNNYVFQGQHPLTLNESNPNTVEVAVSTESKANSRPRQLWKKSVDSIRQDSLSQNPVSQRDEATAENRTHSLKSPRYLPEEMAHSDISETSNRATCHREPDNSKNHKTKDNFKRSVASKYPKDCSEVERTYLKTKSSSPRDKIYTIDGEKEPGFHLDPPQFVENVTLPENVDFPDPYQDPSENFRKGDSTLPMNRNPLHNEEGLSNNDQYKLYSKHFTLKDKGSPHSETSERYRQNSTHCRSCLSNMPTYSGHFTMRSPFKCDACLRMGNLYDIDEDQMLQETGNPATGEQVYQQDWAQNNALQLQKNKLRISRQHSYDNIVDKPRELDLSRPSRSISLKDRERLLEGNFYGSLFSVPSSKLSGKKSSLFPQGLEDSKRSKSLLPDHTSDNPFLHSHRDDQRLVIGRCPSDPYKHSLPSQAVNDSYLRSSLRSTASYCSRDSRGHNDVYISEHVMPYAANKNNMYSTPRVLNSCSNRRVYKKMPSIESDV

Compared with Cc1sc2nc(Cn3nc(C(F)(F)F)cc3Cl)cc(=O)n2c1-c1cncc(C#N)c1 [compound 197, 5-[7-[[5-chloro-3-(trifluoromethyl)pyrazol-1-yl]methyl]-2-methyl-5-oxo-thiazolo[3,2-a]pyrimidin-3-yl]pyridine-3-carbonitrile], CCc1sc2nc(Cn3nc(C(F)(F)F)cc3Cl)cc(=O)n2c1-c1cccnc1 [compound 202, 7-[[5-chloro-3-(trifluoromethyl)pyrazol-1-yl]methyl]-2-ethyl-3-(3-pyridyl)thiazolo[3,2-a]pyrimidin-5-one] is 73-fold higher in EC50: 0.327 µM for the first, 23.9 µM for the second.

First: Cc1sc2nc(Cn3nc(C(F)(F)F)cc3Cl)cc(=O)n2c1C(=O)C(F)(F)F [compound 198, 7-[[5-chloro-3-(trifluoromethyl)pyrazol-1-yl]methyl]-2-methyl-3-(2,2,2-trifluoroacetyl)thiazolo[3,2-a]pyrimidin-5-one]
Second: Cc1sc2nc(Cn3nc(C(F)(F)F)cc3Cl)cc(=O)n2c1C(O)C(F)(F)F (stereo not drawn) [compound 203, 7-[[5-chloro-3-(trifluoromethyl)pyrazol-1-yl]methyl]-2-methyl-3-(2,2,2-trifluoro-1-hydroxy-ethyl)thiazolo[3,2-a]pyrimidin-5-one]
The EC50 of the first is 29-fold lower: 0.201 µM for the first, 5.85 µM for the second.

First: CC1CC1c1c(C(F)(F)F)sc2nc(Cn3nc(C(F)(F)F)cc3Cl)cc(=O)n12 (stereo not drawn) [compound 199, 7-[[5-chloro-3-(trifluoromethyl)pyrazol-1-yl]methyl]-3-(2-methylcyclopropyl)-2-(trifluoromethyl)thiazolo[3,2-a]pyrimidin-5-one]
Second: CC1CC1c1c(C(F)(F)F)sc2nc(Cn3nc(Cl)cc3C(F)(F)F)cc(=O)n12 (stereo not drawn) [compound 200, 7-[[3-chloro-5-(trifluoromethyl)pyrazol-1-yl]methyl]-3-(2-methylcyclopropyl)-2-(trifluoromethyl)thiazolo[3,2-a]pyrimidin-5-one]
The EC50 of the first is 2.3-fold lower: 1.39 µM for the first, 3.13 µM for the second.

First: CCNC(=O)c1c(C)sc2nc(CN(CC)c3ccc(Br)cn3)cc(=O)n12 [compound 204, 7-[[(5-bromo-2-pyridyl)-ethyl-amino]methyl]-N-ethyl-2-methyl-5-oxo-thiazolo[3,2-a]pyrimidine-3-carboxamide]
Second: CCNC(=O)c1c(C(F)(F)F)sc2nc(CN(CC)c3ccc(F)cn3)cc(=O)n12 [compound 205, N-ethyl-7-[[ethyl-(5-fluoro-2-pyridyl)amino]methyl]-5-oxo-2-(trifluoromethyl)thiazolo[3,2-a]pyrimidine-3-carboxamide]
The EC50 of the first is 4.6-fold higher: 5.12 µM for the first, 1.12 µM for the second. The second is the more potent here.

Compared with O=c1cc(Cn2nc(C(F)(F)F)cc2Cl)nc2sc(C(F)(F)F)c(N3CCC3)n12 [compound 206, 3-(Azetidin-1-yl)-7-[[5-chloro-3-(trifluoromethyl)pyrazol-1-yl]methyl]-2-(trifluoromethyl)thiazolo[3,2-a]pyrimidin-5-one], O=c1cc(Cn2nc(C(F)(F)F)cc2Cl)nc2sc(C(F)(F)F)c(N3CC(F)(F)C3)n12 [compound 231, 7-[[5-chloro-3-(trifluoromethyl)pyrazol-1-yl]methyl]-3-(3,3-difluoroazetidin-1-yl)-2-(trifluoromethyl)thiazolo[3,2-a]pyrimidin-5-one] is 8.5-fold higher in EC50: 7.19 µM for the first, 61.3 µM for the second.

Going from COc1cc(C(F)(F)F)nn1Cc1cc(=O)n2c(C3CC3C#N)c(C)sc2n1 (stereo not drawn) [compound 209, 2-[7-[[5-methoxy-3-(trifluoromethyl)pyrazol-1-yl]methyl]-2-methyl-5-oxo-thiazolo[3,2-a]pyrimidin-3-yl]cyclopropanecarbonitrile] to COc1cc(C(F)(F)F)n(Cc2cc(=O)n3c(C4CC4C#N)c(C)sc3n2)n1 (stereo not drawn) [compound 210, 2-[7-[[3-methoxy-5-(trifluoromethyl)pyrazol-1-yl]methyl]-2-methyl-5-oxo-thiazolo[3,2-a]pyrimidin-3-yl]cyclopropanecarbonitrile], the EC50 rises from 0.0666 µM to 8.92 µM (130-fold). The first is the more potent here.

Compared with CCc1sc2nc(Cn3nc(C(F)(F)F)cc3Cl)cc(=O)n2c1C(C)=O [compound 211, 3-acetyl-7-[[5-chloro-3-(trifluoromethyl)pyrazol-1-yl]methyl]-2-ethyl-thiazolo[3,2-a]pyrimidin-5-one], CCc1sc2nc(Cn3nc(Cl)cc3C(F)(F)F)cc(=O)n2c1C(C)=O [compound 212, 3-acetyl-7-[[3-chloro-5-(trifluoromethyl)pyrazol-1-yl]methyl]-2-ethyl-thiazolo[3,2-a]pyrimidin-5-one] is 19-fold higher in EC50: 0.31 µM for the first, 5.84 µM for the second.

First: CCc1sc2nc(Cn3nc(C(F)(F)F)cc3Cl)cc(=O)n2c1C1CC1C#N (stereo not drawn) [compound 213, 2-[7-[[5-chloro-3-(trifluoromethyl)pyrazol-1-yl]methyl]-2-ethyl-5-oxo-thiazolo[3,2-a]pyrimidin-3-yl]cyclopropanecarbonitrile]
Second: CCc1sc2nc(Cn3nc(Cl)cc3C(F)(F)F)cc(=O)n2c1C1CC1C#N (stereo not drawn) [compound 214, 2-[7-[[3-chloro-5-(trifluoromethyl)pyrazol-1-yl]methyl]-2-ethyl-5-oxo-thiazolo[3,2-a]pyrimidin-3-yl]cyclopropanecarbonitrile]
The EC50 of the first is 2.7-fold lower: 0.066 µM for the first, 0.18 µM for the second.

Going from Cc1sc2nc(Cn3nc(C(F)(F)F)cc3Cl)cc(=O)n2c1Br [compound 215, 3-bromo-7-[[5-chloro-3-(trifluoromethyl)pyrazol-1-yl]methyl]-2-methyl-thiazolo[3,2-a]pyrimidin-5-one] to Cc1sc2nc(Cn3nc(Cl)cc3C(F)(F)F)cc(=O)n2c1Br [compound 216, 3-bromo-7-[[3-chloro-5-(trifluoromethyl)pyrazol-1-yl]methyl]-2-methyl-thiazolo[3,2-a]pyrimidin-5-one], the EC50 falls from 0.0911 µM to 0.0594 µM (1.5-fold). The second is the more potent here.

First: COc1sc2nc(Cn3nc(C(F)(F)F)cc3Cl)cc(=O)n2c1Cl [compound 217, 3-chloro-7-[[5-chloro-3-(trifluoromethyl)pyrazol-1-yl]methyl]-2-methoxy-thiazolo[3,2-a]pyrimidin-5-one]
Second: COc1sc2nc(Cn3nc(Cl)cc3C(F)(F)F)cc(=O)n2c1Cl [compound 218, 3-chloro-7-[[3-chloro-5-(trifluoromethyl)pyrazol-1-yl]methyl]-2-methoxy-thiazolo[3,2-a]pyrimidin-5-one]
The EC50 of the first is 18-fold lower: 4.74 µM for the first, 83 µM for the second. The first is the more potent here.

First: CSc1c(C(F)(F)F)sc2nc(Cn3nc(C(F)(F)F)cc3Cl)cc(=O)n12 [compound 219, 7-[[5-chloro-3-(trifluoromethyl)pyrazol-1-yl]methyl]-3-methylsulfanyl-2-(trifluoromethyl)thiazolo[3,2-a]pyrimidin-5-one]
Second: Cc1sc2nc(Cn3nc(C(F)(F)F)cc3Cl)cc(=O)n2c1C(C)CO (stereo not drawn) [compound 222, 7-[[5-Chloro-3-(trifluoromethyl)pyrazol-1-yl]methyl]-3-(2-hydroxy-1-methyl-ethyl)-2-methyl-thiazolo[3,2-a]pyrimidin-5-one]
The EC50 of the first is 3.6-fold higher: 10.5 µM for the first, 2.92 µM for the second.

Compared with CCN(Cc1cc(=O)n2c(C3CC3(C#N)CO)csc2n1)c1ccc(F)cc1 (stereo not drawn) [compound 220, 2-[7-[(N-Ethyl-4-fluoro-anilino)methyl]-5-oxo-thiazolo[3,2-a]pyrimidin-3-yl]-1-(hydroxymethyl)cyclopropanecarbonitrile], CCNC(=O)c1c(C(F)(F)F)sc2nc(CN(C)c3ccc(F)cn3)cc(=O)n12 [compound 230, N-ethyl-7-[[(5-fluoro-2-pyridyl)-methyl-amino]methyl]-5-oxo-2-(trifluoromethyl)thiazolo[3,2-a]pyrimidine-3-carboxamide] is 6.9-fold lower in EC50: 47 µM for the first, 6.86 µM for the second. The second is the more potent here.

First: Cc1sc2nc(Cn3nc(C(F)(F)F)cc3Cl)cc(=O)n2c1CC1CC1 [compound 221, 7-[[5-chloro-3-(trifluoromethyl)pyrazol-1-yl]methyl]-3-(cyclopropylmethyl)-2-methyl-thiazolo[3,2-a]pyrimidin-5-one]
Second: Cc1sc2nc(Cn3nc(C(F)(F)F)cc3Cl)cc(=O)n2c1CC#N [compound 229, 2-[7-[[5-chloro-3-(trifluoromethyl)pyrazol-1-yl]methyl]-2-methyl-5-oxo-thiazolo[3,2-a]pyrimidin-3-yl]acetonitrile]
The EC50 of the first is 1.7-fold lower: 3.76 µM for the first, 6.46 µM for the second.

First: Cc1sc2nc(Cn3nc(Cl)cc3C(F)(F)F)cc(=O)n2c1C(C)CO (stereo not drawn) [compound 223, 7-[[3-chloro-5-(trifluoromethyl)pyrazol-1-yl]methyl]-3-(2-hydroxy-1-methyl-ethyl)-2-methyl-thiazolo[3,2-a]pyrimidin-5-one]
Second: O=c1cc(Cn2nc(Cl)cc2C(F)(F)F)nc2scc(Br)n12 [compound 226, 3-bromo-7-[[3-chloro-5-(trifluoromethyl)pyrazol-1-yl]methyl]thiazolo[3,2-a]pyrimidin-5-one]
The EC50 of the first is 7.7-fold higher: 10.9 µM for the first, 1.42 µM for the second. The second is the more potent here.

First: Cc1sc2nc(Cn3nc(C(F)(F)F)cc3Cl)cc(=O)n2c1C(=O)C1CC1 [compound 224, 7-[[5-chloro-3-(trifluoromethyl)pyrazol-1-yl]methyl]-3-(cyclopropanecarbonyl)-2-methyl-thiazolo[3,2-a]pyrimidin-5-one]
Second: O=c1cc(Cn2nc(C(F)(F)F)cc2Cl)nc2scc(Br)n12 [compound 225, 3-bromo-7-[[5-chloro-3-(trifluoromethyl)pyrazol-1-yl]methyl]thiazolo[3,2-a]pyrimidin-5-one]
The EC50 of the first is 24-fold lower: 0.366 µM for the first, 8.69 µM for the second. The first is the more potent here.

First: Cc1sc2nc(Cn3nc(N)cc3Cl)cc(=O)n2c1Br [compound 227, 7-[(3-amino-5-chloro-pyrazol-1-yl)methyl]-3-bromo-2-methyl-thiazolo[3,2-a]pyrimidin-5-one]
Second: Cc1sc2nc(Cn3nc(Cl)cc3N)cc(=O)n2c1Br [compound 228, 7-[(5-amino-3-chloro-pyrazol-1-yl)methyl]-3-bromo-2-methyl-thiazolo[3,2-a]pyrimidin-5-one]
The EC50 of the first is 2.5-fold lower: 13 µM for the first, 32.2 µM for the second. The first is the more potent here.

For COc1sc2nc(Cn3nc(C(F)(F)F)cc3Cl)cc(=O)n2c1-c1cccnc1 [compound 233, 7-[[5-chloro-3-(trifluoromethyl)pyrazol-1-yl]methyl]-2-methoxy-3-(3-pyridyl)thiazolo[3,2-a]pyrimidin-5-one], the EC50 was 6.14 µM.
